# Results published in publication PMC10447463, “Data-mining unveils structure–property–activity correlation of viral infectivity enhancing self-assembling peptides” (Nature Communications, 2023).
# Where two headings read alike, the source gives them in different places.
# Legend:
# [1] = system: HIV-1 infection of TZM-bl cells; assay: HIV-1 infectivity enhancement assay, β-galactosidase luminescence; format: cell-based; conditions: for Rel-to EFC / n-fold to virus: Fig S8 panels B, D; for Rel-to EFC: infectivity enhancement relative to EF-C; for Log10 Inf. rel. to EF-C: log10 of HIV-1 infection of TZM-bl cells relative to EF-C, Fig S15 source data, asymmetric std dev errors
# [2] = format: physicochemical; conditions: STD prep
# [3] = format: physicochemical; conditions: for Tht category (> 1.5 to blank = +): category 1/0
# Outline: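 Fibrils (1 mg/mL solution) were mixed with 50 µM ThT in PBS for 15 min at RT, and fluorescence was read at λex 440/λem 488 nm against a PBS blank, as a triplicate mean ± SD. Zeta potential came from electrophoretic mobility (Smoluchowski) after 1 d aggregation at 1 mg/mL in PBS pH 7.4, diluted into 1 mM KCl.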
# [4] = Feb2021, 1.3 µM value relative to virus only (0 µM)
# [5] = Feb2021, log10 of infectivity relative to EF-C
# [6] = Feb2021, n-fold infectivity relative to EF-C
# [7] = Feb2021, unrounded values of the 1.3 µM column
# [8] = infectivity n-fold relative to virus alone
# [9] = infectivity class (low / medium / high) of each library peptide, main list in c1-c6, same classes repeated in sub-lists of sequences containing the hydrophobicity/charge patterns P+,H0,P+,H0,P0,H0,P0, P+,H0,P0,H0,P0,H0,P0, P+,H0,P0,H0
# [10] = relative to blank 42.1851851851852 a.u.
# [11] = Feb2021, Log10 of infectivity relative to EF-C
# [12] = Feb2021, figures match the 1.3 µM column
# [13] = Feb2021, infectivity relative to virus only
# [14] = Feb2021, n-fold enhancement relative to EF-C
# [15] = infectivity class (low / medium / high) of the peptide in the sequence-pattern analysis, Fig. S22-A4, class limits not given
# [16] = ThT fluorescence relative to blank (42.1851851851852 a.u.)
# [17] = ThT fluorescence relative to blank, blank = 42.1851851851852
# [18] = Feb2021 run, infectivity n-fold relative to virus alone
# [19] = Feb2021 run, log10 of infectivity relative to EF-C
# [20] = Feb2021 run, n-fold infectivity relative to EF-C
Substance,"n-fold to virus (Feb2021) [1, 4]","Log10 of Rel to EFC (Feb2021) [1, 5]","Rel-to EFC (Feb-2021) [1, 6]","Absolute Infectivity / RLU /s (Feb2021) [1, 7] [RLU /s]",Rel-to EFC [1],"n-fold to virus [1, 8]","infectivity [1, 9]",Log10 Inf. rel. to EF-C [1],"TEM: 1= fibrils, 0= aggregates (micelle), 0.5 = aggregates and fibrils, -1 = nothing obersved, STD prep [2]",Tht category (> 1.5 to blank = +) [3],"Tht rel to blank (42.1851851851852) [3, 10]","Log10 of Rel to EFC (Feb2021) [1, 11]","Absolute Infectivity / RLU /s (Feb2021) [1, 12] [RLU /s]","n-fold to virus (Feb2021) [1, 13]","Rel-to EFC (Feb-2021) [1, 14]","infectivity [1, 15]","Tht rel to blank (42.1851851851852) [3, 16]","n-fold to virus (Feb2021) [1, 18]","Log10 of Rel to EFC (Feb2021) [1, 19]","Rel-to EFC (Feb-2021) [1, 20]",also measured
KWKWQW [KB3],0.6105,-1.838,0.01453,386.7,0.01453,0.6105,low,-1.838,0,0 (ThT-inactive (N-Fold <2)),1.518,–,–,–,–,–,–,–,–,–,–
KAKAKAQA [TG15],–,–,0.008711,–,–,–,low,-2.06,0,0 (ThT-inactive (N-Fold <2)),–,-2.06,186.7,0.366,0.008711,low,1.151,–,–,–,"Tht rel to blank (42.1851851851852) [3, 17]: 1.151"
QCKIKQII [CK6],–,–,0.006472,–,–,–,low,-2.189,1,"1 (ThT. Cat is 1, if Rel. ThT >2)",2.961,-2.189,206.7,0.2719,0.006472,–,2.961,0.2719,-2.189,0.006472,"Tht rel to blank (42.1851851851852) [3, 17]: 2.961"
CQFQFQF [QBL4],14.84,-0.4519,0.3533,7570,0.3533,14.84,medium,-0.4519,1,"1 (ThT. Cat is 1, if Rel. ThT >2)",13.03,–,–,–,–,–,–,–,–,–,–
QCKFKFQF [CK9],32.23,–,0.767,20303.33333,–,–,–,-0.1152,1,"1 (ThT. Cat is 1, if Rel. ThT >2)",2.014,-0.1152,–,–,0.767,high,2.014,32.23,-0.1152,0.767,–
CKAKAQA [TM155],1.325,–,0.03153,1740,–,–,low,-1.501,0.5,0 (ThT-inactive (N-Fold <2)),1.227,-1.501,–,–,0.03153,low,1.227,1.325,-1.501,0.03153,–
